One series concerns KB. The experiment in a line: Cytotoxicity in human KB cells assessed as reduction in cell viability incubated for 48 hrs by MTT assay. The format is functional, cell-based.
Another series deals with SMMC-7721. Description: Cytotoxicity in human SMMC7721 cells assessed as reduction in cell viability incubated for 48 hrs by MTT assay. It is filed as functional, cell-based. The settings on record: SMMC-7721, 48 h.
Series [1] relates to HepG2. Description: Antitumor activity against human HepG2 cells xenografted in Balb/C mouse assessed as inhibition of tumor growth at 15 mg/kg, iv dosed once per week for 30 days followed by 2 weeks observation relative untreated control. It is filed as functional. The following applies: read-out: TGI.
Series [2] in a line: Drug level in plasma of C57BL/6 mouse at 2 mg/kg, iv measured up to 1 hr by LC-MS/MS analysis. The format is ADME, organism-based. The settings on record: in vivo.
Another series deals with Bel-7402. Description: Cytotoxicity in human Bel7402 cells assessed as reduction in cell viability incubated for 48 hrs by MTT assay. The format is functional, cell-based. The following applies: Bel-7402, 48 h.
The subject of series [3] is Mus musculus. Description: Protection against LPS-induced lethal inflammation in C57BL/6 mouse model of sepsis assessed as survival at 10 mg/kg, po dosed 0.5 hrs before LPS injection followed by 10 mg/kg, po dosing at 1 hr, 4 hrs, and 8 hrs after LPS treatment. It is filed as functional.
A short description of series [4]: Drug metabolism in plasma of C57BL/6 mouse assessed as (S)-8-Ethyl-8-hydroxy-2-isopropyl-8H-oxazolo[4,5-f ]-pyrano[3',4':6,7]indolizino[1,2-b]quinoline-9,12(11H,14H)-dione formation at 2 mg/kg, iv measured up to 1 hr by LC-MS/MS analysis. The format is ADME, organism-based. The settings on record: in vivo.
Another series concerns MGC-803. Description: Cytotoxicity in human MGC803 cells assessed as reduction in cell viability incubated for 48 hrs by MTT assay. The format is functional, cell-based. The following applies: MGC-803, 48 h.
In another series the test system is SK-N-SH. The experiment in a line: Cytotoxicity in human SK-N-SH cells assessed as reduction in cell viability incubated for 48 hrs by MTT assay. It is filed as functional, cell-based.
A short description of series [5]: Drug metabolism in plasma of C57BL/6 mouse assessed as (9S)-9-Ethyl-9-hydroxy-3-isopropyl-2,3-dihydro[1,3]-oxazino[5,6-f ]pyrano[3',4':6,7]indolizino[1,2-b]quinoline-1,10,13(9H,12H,15H)-trione formation at 2 mg/kg, iv measured up to 1 hr by LC-MS/MS analysis. It is filed as ADME, organism-based. The settings on record: in vivo.
Series [6] concerns Mus musculus. Description: Toxicity in human HepG2 cells xenografted Balb/C mouse assessed as reduction in body weight at 15 mg/kg, iv dosed once per week for 30 days followed by 2 weeks observation. The following applies: in vivo, 336 h. It is filed as organism-based.
The next series has as its system MCF7. Description: cells. The following applies: Homo sapiens, MCF7, 48 h.
The subject of the next series is QGY-7703. Description: Cytotoxicity in human QGY7703 cells assessed as reduction in cell viability incubated for 48 hrs by MTT assay. It is filed as functional, cell-based. The settings on record: QGY-7703, 48 h.
Series [7] deals with Mus musculus. Description: Toxicity in human HepG2 cells xenografted Balb/C mouse assessed as reduction in body weight at 30 mg/kg, iv dosed once per week for 30 days followed by 2 weeks observation. It is filed as organism-based. The following applies: in vivo, 336 h.
The next series concerns A549. Description: cells. The settings on record: Homo sapiens, A549, 48 h.
A further series relates to MDA-MB-231. Description: Cytotoxicity in human MDA-MB-231 cells assessed as reduction in cell viability incubated for 48 hrs by MTT assay. It is filed as functional, cell-based. The following applies: MDA-MB-231, 48 h.
In another series the test system is SGC-7901. The experiment in a line: Cytotoxicity in human SGC7901 cells assessed as reduction in cell viability incubated for 48 hrs by MTT assay. It is filed as functional, cell-based. The following applies: SGC-7901, 48 h.
For series [8], the system named is HepG2. Description: Cytotoxicity in human HepG2 cells assessed as reduction in cell viability incubated for 48 hrs by MTT assay. The format is functional, cell-based. The following applies: HepG2, 48 h.
Series [9] deals with Mus musculus. Description: Protection against LPS-induced lethal inflammation in C57BL/6 mouse model of sepsis assessed as survival at 4 mg/kg, po dosed 0.5 hrs before LPS injection followed by 4 mg/kg, po dosing at 1 hr, 4 hrs, and 8 hrs after LPS treatment. It is filed as functional.
The subject of series [10] is Mus musculus. Description: Toxicity in human HepG2 cells xenografted Balb/C mouse assessed as effect on mouse survival at 1.3 mg/kg, po qd for 30 days followed by 2 weeks observation. The format is organism-based. The following applies: in vivo, 336 h.
A short description of series [11]: Drug metabolism in plasma of C57BL/6 mouse assessed as (9S)-9-Ethyl-9-hydroxy-3-isopropyl-2,3-dihydro[1,3]-oxazino[5,6-f ]pyrano[3',4':6,7]indolizino[1,2-b]quinoline-1,10,13(9H,12H,15H)-trione formation at 10 mg/kg, po measured up to 1 hr by LC-MS/MS analysis. The format is ADME, organism-based. The following applies: in vivo.
For series [12], the system named is Mus musculus. Description: Toxicity in human HepG2 cells xenografted Balb/C mouse assessed as effect on mouse survival at 4 mg/kg, iv dosed once per week for 30 days followed by 2 weeks observation. It is filed as organism-based. The settings on record: in vivo, 336 h.
The nature of series [13]: Drug metabolism in plasma of C57BL/6 mouse assessed as (S)-8-Ethyl-8-hydroxy-2-isopropyl-8H-oxazolo[4,5-f ]-pyrano[3',4':6,7]indolizino[1,2-b]quinoline-9,12(11H,14H)-dione formation at 10 mg/kg, po measured up to 1 hr by LC-MS/MS analysis. It is filed as ADME, organism-based. The settings on record: in vivo.
Series [14] relates to Mus musculus. Description: Toxicity in human HepG2 cells xenografted Balb/C mouse assessed as reduction in body weight at 1.3 mg/kg, po qd for 30 days followed by 2 weeks observation. The following applies: in vivo, 336 h. The format is organism-based.
Series [15] relates to HepG2. Description: Antitumor activity against human HepG2 cells xenografted in Balb/C mouse assessed as inhibition of tumor growth at 4 mg/kg, iv dosed once per week for 30 days followed by 2 weeks observation relative untreated control. The format is functional. The settings on record: read-out: TGI.
Series [16] is described as follows: Drug level in plasma of C57BL/6 mouse at 10 mg/kg, po measured up to 30 hrs by LC-MS/MS analysis. The settings on record: in vivo. It is filed as ADME, organism-based.
The test system of series [17] is Mus musculus. Description: Toxicity in human HepG2 cells xenografted Balb/C mouse assessed as induction of gastrointestinal flatulence at 8 mg/kg, iv dosed once per week for 30 days followed by 2 weeks observation. It is filed as organism-based. The following applies: in vivo, 336 h.
Series [18] deals with Mus musculus. Description: Toxicity in human HepG2 cells xenografted Balb/C mouse assessed as effect on mouse survival at 8 mg/kg, iv dosed once per week for 30 days followed by 2 weeks observation. It is filed as organism-based. The settings on record: in vivo, 336 h.
Series [19] relates to HepG2. The experiment in a line: Antitumor activity against human HepG2 cells xenografted in Balb/C mouse assessed as inhibition of tumor growth at 8 mg/kg, iv dosed once per week for 30 days followed by 2 weeks observation relative untreated control. It is filed as functional. The settings on record: read-out: TGI.
For series [20], the system named is HepG2. The experiment in a line: Antitumor activity against human HepG2 cells xenografted in Balb/C mouse assessed as inhibition of tumor growth at 30 mg/kg, iv dosed once per week for 30 days followed by 2 weeks observation relative untreated control. The format is functional. The following applies: read-out: TGI.
The subject of series [21] is Mus musculus. The experiment in a line: Toxicity in human HepG2 cells xenografted Balb/C mouse assessed as reduction in body weight at 4 mg/kg, iv dosed once per week for 30 days followed by 2 weeks observation. The following applies: in vivo, 336 h. The format is organism-based.
The subject of series [22] is Mus musculus. The experiment in a line: Toxicity in human HepG2 cells xenografted Balb/C mouse assessed as reduction in body weight at 8 mg/kg, iv dosed once per week for 30 days followed by 2 weeks observation. It is filed as organism-based. The settings on record: in vivo, 336 h.
Series [23] has as its system HepG2. Description: Antitumor activity against human HepG2 cells xenografted in Balb/C mouse assessed as inhibition of tumor growth at 1.3 mg/kg, po qd for 30 days followed by 2 weeks observation relative untreated control. It is filed as functional. The settings on record: read-out: TGI.
Series [24] relates to Mus musculus. The experiment in a line: Toxicity in human HepG2 cells xenografted Balb/C mouse assessed as induction of gastrointestinal flatulence at 1/3 mg/kg, po qd for 30 days followed by 2 weeks observation. It is filed as organism-based. The settings on record: in vivo, 336 h.
The subject of series [25] is Mus musculus. The experiment in a line: Toxicity in human HepG2 cells xenografted Balb/C mouse assessed as induction of gastrointestinal flatulence at 4 mg/kg, iv dosed once per week for 30 days followed by 2 weeks observation. The format is organism-based. The settings on record: in vivo, 336 h.
Series [26] is described as follows: Drug metabolism in plasma of C57BL/6 mouse assessed as (9S)-9-Ethyl-9-hydroxy-3-isopropyl-2,3-dihydro[1,3]-oxazino[5,6-f ]pyrano[3',4':6,7]indolizino[1,2-b]quinoline-1,10,13(9H,12H,15H)-trione formation at 10 mg/kg, iv measured up to 1 hr by LC-MS/MS analysis. The format is ADME, organism-based. The following applies: in vivo.

Description for A549: Cytotoxicity in human A549 cells assessed as reduction in cell viability incubated for 48 hrs by MTT assay
Description for MCF7: Cytotoxicity in human MCF7 cells assessed as reduction in cell viability incubated for 48 hrs by MTT assay

`CC[C@@]1(OC(=O)CNC(=O)CCC(=O)O)C(=O)OCc2c1cc1n(c2=O)Cc2cc3c(ccc4oc(C(C)C)nc43)nc2-1`: the IC50 was 935 nM in the series on KB; 8500 nM with SMMC-7721; 425 nM in the series with Bel-7402; 62 nM in the series on MGC-803; 510 nM with SK-N-SH; over 10000 nM in the series with MCF7. In addition, the IC50 in the series with QGY-7703 was over 10000 nM; with A549, 170 nM; in the series on MDA-MB-231 it was 425 nM; with SGC-7901, over 10000 nM; in the series with HepG2 [8] it was 60 nM. Further, the inhibition in vivo at 15 mg/kg in the series on HepG2 [1] is 86%. Further, the Drug uptake result in [2] is reported as “Not Active”. For the same molecule, the Activity in the series with Mus musculus [3] was 80%; with Mus musculus [6], “Non-Toxic”; with Mus musculus [7], “Non-Toxic”. The Drug metabolism entry in series [4] and in series [5] was “Metabolite_Notdetected” each time.
Take `CC[C@@]1(OC(=O)CNC(=O)CCC(=O)O)C(=O)OCc2c1cc1n(c2=O)Cc2cc3c4c(ccc3nc2-1)OC(C(C)C)NC4=O` (some centres not stated): the Activity is on record as 100% in the series with Mus musculus [9]; “Non-Toxic” with Mus musculus [10]; “Non-Toxic” in the series on Mus musculus [12]; “Non-Toxic” with Mus musculus [14]; “Toxic” in the series with Mus musculus [17]; “Non-Toxic” in the series on Mus musculus [18]. For the same molecule, the Activity entry in the series with Mus musculus [21] is listed as “Non-Toxic”; in the series on Mus musculus [22], “Non-Toxic”; in the series with Mus musculus [24], “Toxic”; in the series with Mus musculus [25] it was “Toxic”. For the same molecule, the IC50 in the series with KB is 7280 nM; in the series on SMMC-7721, over 10000 nM; with Bel-7402, over 10000 nM; with MGC-803 it was 971 nM; in the series on SK-N-SH, 194 nM; in the series on MCF7, over 10000 nM. Further, the IC50 in the series on QGY-7703 is over 10000 nM; with A549, 6470 nM; in the series with MDA-MB-231, 5020 nM; in the series with SGC-7901, over 10000 nM; with HepG2 [8] it was 971 nM. The Drug metabolism entry in series [11], in series [13] and in series [26] was “Metabolite_Notdetected” in each case. For the same molecule, in the series on HepG2 [15], the inhibition in vivo at 4 mg/kg was determined as 83%. Further, the Drug uptake entry in [16] is “Not Active”. Besides, the inhibition in vivo at 8 mg/kg in the series with HepG2 [19] came to 93%. In addition, in the series with HepG2 [20], the inhibition in vivo at 30 mg/kg came out at 90%. For the same molecule, the inhibition in vivo at 1.3 mg/kg in the series with HepG2 [23] turned out to be 93%.

The values above are taken from ChEMBL document CHEMBL4196217, “Structure-Based Drug Design and Identification of H2O-Soluble and Low Toxic Hexacyclic Camptothecin Derivatives with Improved Efficacy in Cancer and Lethal Inflammation Models in Vivo” (J Med Chem, 2018).
